In US20180002288A1, “USE OF PICOLINAMIDES AS FUNGICIDES” (DOW AGROSCIENCES LLC, priority 2014, published 2018):
Like-named read-outs stand apart in the source and are kept apart here.

Experiments:
[1] = system: Puccinia triticina; experiment: Wheat Brown Rust fungicidal activity (PUCCRT); type: in vivo; settings: Low Volume Cereal Activity at 121.5 g/Ha
Protocol: All fungicides were evaluated using the aforementioned method for their activity vs. all target diseases, unless stated otherwise. Wheat leaf blotch and brown rust activity were also evaluated using track spray applications, in which case the fungicides were formulated as EC formulations, containing 0.1% Trycol 5941 in the spray solutions. Wheat plants (variety Yuma) were grown from seed in a greenhouse in 50% mineral soil/50% soil-less Metro mix until the first leaf was fully emerged, with 7-10 seedlings per pot. These plants were inoculated with an aqueous spore suspension of Zymoseptoria tritici either prior to or after fungicide treatments. After inoculation the plants were kept in 100% relative humidity (one day in a dark dew chamber followed by two to three days in a lighted dew chamber at 20° C.) to permit spores to germinate and infect the leaf. The plants were then transferred to a greenhouse set at 20° C. for disease to develop. When disease symptoms were fully expressed on the 1st leaves of untreated plants, infection levels were assessed on a scale of 0 to 100 percent disease severity. Percent disease control was calculated using the ratio of disease severity on treated plants relative to untreated plants. Wheat plants (variety Yuma) were grown from seed in a greenhouse in 50% mineral soil/50% soil-less Metro mix until the first leaf was fully emerged, with 7-10 seedlings per pot. These plants were inoculated with an aqueous spore suspension of Puccinia triticina either prior to or after fungicide treatments. […] The plants were then transferred to a greenhouse set at 24° C. for disease to develop. Fungicide formulation, application and disease assessment followed the procedures as described in the Example A.

[2] = system: Zymoseptoria tritici; experiment: Leaf Blotch of Wheat fungicidal activity (SEPTTR); type: in vivo; settings: Low Volume Cereal Activity at 121.5 g/Ha
Protocol: All fungicides were evaluated using the aforementioned method for their activity vs. all target diseases, unless stated otherwise. Wheat leaf blotch and brown rust activity were also evaluated using track spray applications, in which case the fungicides were formulated as EC formulations, containing 0.1% Trycol 5941 in the spray solutions. Wheat plants (variety Yuma) were grown from seed in a greenhouse in 50% mineral soil/50% soil-less Metro mix until the first leaf was fully emerged, with 7-10 seedlings per pot. These plants were inoculated with an aqueous spore suspension of Zymoseptoria tritici either prior to or after fungicide treatments. After inoculation the plants were kept in 100% relative humidity (one day in a dark dew chamber followed by two to three days in a lighted dew chamber at 20° C.) to permit spores to germinate and infect the leaf. The plants were then transferred to a greenhouse set at 20° C. for disease to develop. When disease symptoms were fully expressed on the 1st leaves of untreated plants, infection levels were assessed on a scale of 0 to 100 percent disease severity. Percent disease control was calculated using the ratio of disease severity on treated plants relative to untreated plants.

[3] = 24 h, 1 Day Protectant, read-out: PUCCRT 1DP (Wheat Brown Rust, 1 Day Protectant)
[4] = 72 h, 3 Day Curative, read-out: PUCCRT 3DC (Wheat Brown Rust, 3 Day Curative)
[5] = 24 h, 1 Day Protectant, read-out: SEPTTR 1DP (Wheat Leaf Blotch, 1 Day Protectant)
[6] = 72 h, 3 Day Curative, read-out: SEPTTR 3DC (Wheat Leaf Blotch, 3 Day Curative)

Row | SMILES | pest or weed control at 121.5 g/ha [1, 3] [%] | pest or weed control at 121.5 g/ha [1, 4] [%] | pest or weed control at 121.5 g/ha [2, 5] [%] | pest or weed control at 121.5 g/ha [2, 6] [%]
1 | COc1ccnc(C(=O)N[C@@H](C)C(=O)O[C@@H](C)[C@H](Oc2ccc(C(F)(F)F)cc2)c2ccccc2)c1OC(C)=O [Example 196] | > 80 | < 80 | > 80 | > 80
2 | COc1ccnc(C(=O)N[C@H](C(=O)O[C@@H](C)[C@H](Oc2ccc(C(F)(F)F)cc2)c2ccccc2)C(C)C)c1OCOC(C)=O [Example 197] | > 80 | < 80 | > 80 | < 0
3 | COc1ccnc(C(=O)N[C@H](C(=O)O[C@@H](C)[C@H](Oc2ccc(C(F)(F)F)cc2)c2ccccc2)C(C)C)c1OC(C)=O [Example 198] | > 80 | < 80 | > 80 | < 0
4 | COc1ccnc(C(=O)N[C@@H](C)C(=O)O[C@@H](C)[C@H](Oc2ccc(Cl)cc2Cl)c2ccccc2)c1OCOC(C)=O [Example 199] | > 80 | < 80 | > 80 | > 80
5 | COc1ccnc(C(=O)N[C@@H](C)C(=O)O[C@@H](C)[C@H](Oc2ccc(Cl)cc2Cl)c2ccccc2)c1OC(C)=O [Example 200] | > 80 | < 80 | > 80 | > 80
6 | COc1ccnc(C(=O)N[C@@H](C)C(=O)O[C@@H](C)[C@H](Oc2ccc(Cl)cc2)c2ccccc2)c1OCOC(C)=O [Example 201] | > 80 | > 80 | > 80 | > 80
7 | COc1ccnc(C(=O)N[C@@H](C)C(=O)O[C@@H](C)[C@H](Oc2cccc(Cl)c2)c2ccccc2)c1OC(C)=O [Example 203] | > 80 | < 80 | > 80 | > 80
8 | COc1ccnc(C(=O)N[C@@H](C)C(=O)O[C@@H](C)[C@H](Oc2cc(F)cc(Cl)c2)c2ccccc2)c1OCOC(C)=O [Example 206] | > 80 | < 80 | > 80 | > 80
9 | CC[C@H](NC(=O)c1nccc(OC)c1OCOC(C)=O)C(=O)O[C@@H](C)[C@H](Oc1cc(F)cc(Cl)c1)c1ccccc1 [Example 208] | > 80 | < 80 | > 80 | > 80
10 | CC[C@H](NC(=O)c1nccc(OC)c1OC(C)=O)C(=O)O[C@@H](C)[C@H](Oc1cc(F)cc(Cl)c1)c1ccccc1 [Example 209] | > 80 | < 80 | > 80 | > 80
11 | COc1ccnc(C(=O)N[C@@H](C)C(=O)O[C@@H](C)[C@@H](Oc2ccccc2)c2cccs2)c1OC(C)=O [Example 210] | < 80 | < 80 | < 80 | < 80
12 | COc1ccnc(C(=O)N[C@@H](C)C(=O)O[C@@H](C)[C@@H](Oc2ccccc2)c2cccnc2)c1OC(C)=O [Example 211] | < 0 | < 80 | < 0 | < 80
13 | COc1ccnc(C(=O)N[C@@H](C)C(=O)O[C@@H](C)C(Oc2ccccc2)c2nccs2)c1OC(C)=O (stereo partly shown) [Example 212] | < 80 | > 80 | < 0 | < 80
14 | COc1ccnc(C(=O)N[C@@H](C)C(=O)O[C@@H](C)C(Oc2ccccc2)c2nccs2)c1OCOC(C)=O (stereo partly shown) [Example 213] | > 80 | > 80 | < 0 | < 80
15 | COc1ccnc(C(=O)N[C@@H](C)C(=O)O[C@@H](C)[C@@H](Oc2ccc(Cl)cc2Cl)c2ccccc2)c1OC(C)=O [Example 214] | > 80 | < 80 | > 80 | > 80
16 | COc1ccnc(C(=O)N[C@@H](C)C(=O)O[C@@H](C)[C@@H](Oc2ccc(Cl)cc2Cl)c2ccccc2)c1OC(=O)C(C)C [Example 215] | < 80 | < 80 | < 80 | < 80
17 | COc1ccnc(C(=O)N[C@@H](C)C(=O)O[C@@H](C)[C@@H](Oc2ccc(Cl)cc2Cl)c2ccccc2)c1OCOC(C)=O [Example 216] | > 80 | < 80 | > 80 | > 80
18 | COc1ccnc(C(=O)N[C@@H](C)C(=O)O[C@@H](C)[C@@H](Oc2ccccc2)c2ccccc2)c1OC(C)=O [Example 217] | > 80 | < 80 | > 80 | > 80
19 | COc1ccnc(C(=O)N[C@@H](C)C(=O)O[C@@H](C)[C@@H](Oc2ccccc2)c2ccccc2)c1OC(=O)C(C)C [Example 218] | < 0 | < 0 | > 80 | < 80
20 | COc1ccnc(C(=O)N[C@@H](C)C(=O)O[C@@H](C)[C@@H](Oc2ccccc2)c2ccccc2)c1OCOC(C)=O [Example 219] | > 80 | > 80 | > 80 | > 80
21 | COc1ccnc(C(=O)N[C@@H](C)C(=O)O[C@@H](C)[C@H](Oc2cccc(F)c2)c2cccc(-c3ccccc3)c2)c1OCOC(C)=O [Example 221] | > 80 | < 80 | > 80 | < 80
22 | COc1ccnc(C(=O)N[C@@H](C)C(=O)O[C@@H](C)[C@H](OCC2CC2)c2cccc(-c3ccccc3)c2)c1OC(C)=O [Example 222] | > 80 | > 80 | > 80 | > 80
23 | COc1ccnc(C(=O)N[C@@H](C)C(=O)O[C@@H](C)[C@H](Oc2cccc(F)c2)c2cccc(-c3ccccc3)c2)c1OC(C)=O [Example 223] | > 80 | < 80 | > 80 | > 80
24 | COc1ccnc(C(=O)N[C@@H](C)C(=O)O[C@@H](C)[C@@H](OCC(C)C)c2ccccc2)c1OC(C)=O [Example 224] | > 80 | > 80 | < 80 | < 80
25 | COc1ccnc(C(=O)N[C@@H](C)C(=O)O[C@@H](C)[C@@H](OCC(C)C)c2ccccc2)c1OCOC(C)=O [Example 226] | > 80 | > 80 | < 80 | < 80
26 | CCCO[C@@H](c1ccccc1)[C@H](C)OC(=O)[C@H](C)NC(=O)c1nccc(OC)c1OC(C)=O [Example 227] | > 80 | > 80 | < 80 | > 80
27 | COc1ccnc(C(=O)N[C@@H](C)C(=O)O[C@@H](C)[C@@H](OC)c2ccccc2)c1OC(C)=O [Example 229] | < 0 | > 80 | < 0 | < 80
28 | COc1ccnc(C(=O)N[C@@H](C)C(=O)O[C@@H](C)[C@H](OC)c2ccccc2)c1OC(C)=O [Example 231] | < 0 | > 80 | < 0 | > 80
